Test results reported in PMC12276038, “Impact of Chelation on Reactivity and Cytotoxicity of Hemilabile Biphenyl Gold(III) N‐Heterocyclic Carbene Complexes” (Chemmedchem, 2025).

Columns and labels:
[1] = molecules of known Log(k′w) used for calibration; cited from earlier work
[2] = Speciation in DMSO-d6/serum-free DMEM by 1H NMR; type: physicochemical; conditions: 3/1 DMSO‐d6/serum‐free DMEM, immediately after mixing (t < 5 min)
Procedure: Speciation in DMEM: NMR spectra were recorded on a Bruker Avance II 300 spectrometer (7 T) operating at a ^1H Larmor frequency of 300.13 MHz with a 5 mm observe broadband probe (QNP) z‐axis (^31P/^19 F/^13C/^1H) at 27 °C.
Solutions of the gold complexes (10 mM) were freshly prepared in DMSO‐d6. Samples were prepared by mixing 200 μL of complex solution with 100 μL (resp. 67 μL) of pure DMSO‐d6 and 100 μL (resp. 133 μL) of DMEM GlutaMax High glucose without FBS. ^1H NMR spectra were acquired immediately after mixing (t < 5 min) using a standard zg30 sequence to determine the resonant frequency of water in the tube. Further spectra were acquired using a cpmg‐esgp1d sequence (pulse program available^[ [60] ^]) which carrier frequency (O1P) was tuned to the water peak maximum to ensure optimal water suppression. The Hahn echo time (D20) was left null to acquire a spectrum without the use of T2‐gating. A particular attention was paid to the shimming process as poor shims result in a broader water signal thus leading to an inefficient water suppression.

MCF‐10 A = experiment: Resazurin cell proliferation assay on noncancerous MCF-10A cells; type: cell-based, human; conditions: MCF‐10 A noncancerous cells, 72 h incubation
Excerpt: (§1) Considering the equivalent activities for neutral and cationic analogs, only cationic representatives of the BGC12, BGC18, and BGC19 couples were further screened on two other human cancer cell lines including hepatic carcinoma Huh‐7 and “triple negative” breast adenocarcinoma MDA‐MB‐231 and noncancerous epithelial breast cells MCF‐10 A (Table 1 ).
(§2) HeLa and MDA‐MB‐231 cells were cultivated in DMEM GlutaMax High Glucose supplemented with 10 vol% fetal bovine serum (FBS) and 1 vol% penicillin/streptomycin (50 U/mL and 50 μg/mL respectively). Huh‐7 cells were cultivated in MEM supplemented with 10 vol% FBS, GlutaMax (2 mM), sodium pyruvate (1 mM), nonessential amino acids mix (0.1 mM), and 1 vol% penicillin/streptomycin. MCF10A cells were cultivated in DMEM:F12 GlutaMax supplemented with 1 vol% penicillin/streptomycin, hEGF (20 ng/mL), hydrocortisone ([…]), cholera toxin (100 ng/mL), insulin (10 μg/mL), and 5 vol% horse serum. These media will be further referred as “Complete media.”
(§3) Stock solutions of the gold complexes (20 mM) were prepared in DMSO and kept at −20 °C. Serial dilutions were performed to obtain a set of 8 concentrations with a 2‐fold geometric progression, and were stored at −20 °C as well.
(§4) Cell proliferation assays were performed using resazurin as a viability indicator. Cells were seeded in 96‐well plates (2000 cells/100 μL per well) in the appropriate complete medium and allowed to grow for 24 h. Cells were then treated in triplicate with 8 different concentrations of the complexes, which were added as 100 μL of 2x dilution in culture medium containing no FBS (or containing 5% horse serum for MCF‐10 A cells), thus leading to a 5% concentration of serum in each well. […] The fluorescence intensity of the reduction product resorufin was measured in each well (540 nm excitation, 590 nm reading), and cellular viability was computed as the fluorescence ratio between sample and DMSO control wells after blank subtraction. […]

Huh‐7 = experiment: Resazurin cell proliferation assay on Huh-7 cells; type: cell-based, human; conditions: Huh‐7, 72 h incubation
Excerpt: as §1, §2, §3, §4

[3] = Solvolysis / stability in DMSO-d6 and DMSO-d6/D2O by 1H NMR; type: physicochemical; conditions: 24 h incubation at 37 °C in DMSO
Procedure: Solvolysis Kinetics: 400 μL of freshly prepared gold complex solution in DMSO‐d6 (5 mM) was transferred to an NMR tube. Spectra were acquired straight away (t0 reference) prior to transferring the tubes to an oven set at 37 °C for 72 h. Spectra were then acquired periodically during incubation. The same procedure was repeated with addition of 100 μL of D2O to each tube.
Solvolysis: A concentrated solution of gold complex (≈40 mM) was prepared in 1 mL DMSO‐d6 mixed with 250 μL of D2O and incubated at 37 °C for 24 h. The solution was then extracted 5 times with 3 mL DCM. The DCM phase was recovered and evaporated thoroughly, and the resulting residue was dissolved in MeCN‐d3 and analyzed by ^1H NMR.

MDA‐MB‐231 = experiment: Resazurin cell proliferation assay on MDA-MB-231 cells; type: cell-based, human; conditions: MDA‐MB‐231, 72 h incubation
Excerpt: as §1, §2, §3, §4

[4] = Log P determination by reverse-phase HPLC (OECD method); conditions: 25% water in acetonitrile (condition B)
HeLa cells [5] = experiment: Resazurin cell proliferation assay on HeLa cells; type: cell-based, human; conditions: 72 h incubation
Excerpt: All new 16 BGC compounds were screened against HeLa cells (cervical adenocarcinoma) to assess their antiproliferative activity through a resazurin cell viability assay.^[ [49] ^] The dose‐response curves were then fitted by a 4‐parameter sigmoid function to extract the median effective concentrations (EC50) shown in Figure 7 .
as §2, §3
Cell proliferation assays were performed using resazurin as a viability indicator. Cells were seeded in 96‐well plates (2000 cells/100 μL per well) in the appropriate complete medium and allowed to grow for 24 h. Cells were then treated in triplicate with 8 different concentrations of the complexes, which were added as 100 μL of 2x dilution in culture medium containing no FBS (or containing 5% horse serum for MCF‐10 A cells), thus leading to a 5% concentration of serum in each well. After 72 h incubation, 110 μL of supernatant was removed from each well, and 10 μL of 500 μM resazurin solution (10x) in PBS were added prior to incubating the cells for 2 h. The fluorescence intensity of the reduction product resorufin was measured in each well (540 nm excitation, 590 nm reading), and cellular viability was computed as the fluorescence ratio between sample and DMSO control wells after blank subtraction. The EC50 value was computed by fitting the data with a 4‐parameter sigmoid σ through nonlinear least square regression, where the EC50 value is directly the c parameter. The regression was performed using curve_fit() function scipy.optimize module in python (scripts available^[ [60] ^]). σ(x,a,b,c,d)=d+a−d/1+(x/c)^b

[6] = Reaction with chloride ions by 1H NMR; type: physicochemical; conditions: 1 eq. chloride source, DMSO‐d6/D2O 4/1
Procedure: Reaction with Chloride Ions: 400 μL of freshly prepared gold complex solution in DMSO‐d6 (5 mM) was added to an NMR tube, followed by 4 μL of 0.5 M NaCl in D2O and 96 μL of D2O. Spectra were acquired straight away (t0 reference) prior to transferring the tubes to an oven set at 37 °C for 72 h. Spectra were then acquired periodically during incubation.

[7] = tested on: effector caspases 3 and 7 in HeLa cells; experiment: Caspase 3/7 activity and cellular morphology by time lapse videomicroscopy; type: cell-based, human; conditions: for Rate of apoptosis induction (caspase activation kinetics): BGC19b 1.7 μM, CCCP 10 μM
Procedure: Apoptosis is a possible outcome of energy shortage in cells following mitochondrial depolarization. We thus monitored the activity of the effector caspases 3 and 7, as a readout of cell apoptosis. The overall cellular morphology was analyzed in parallel.
HeLa cells were seeded in an 8‐well Ibidi slide (4000 cells in 500 μL complete medium per well) and allowed to grow for 24 h. The culture medium was changed to a fresh one (DMEM 5% FBS, 200 μL) containing SiR‐DNA dye (Spirochrome, 1 μM) and CellEvent Caspase 3/7 Green marker (ThermoFisher, 1 μM). […] Cells were monitored for 24 h (20 min step between images) by phase contrast and fluorescence microscopy (Cy5 and EGFP filters for SiR‐DNA and CellEvent Caspase 3/7 markers, respectively). Images were processed using Fiji, and cellular viabilities were extracted as Viability=1−NEGFP/NCy5 where N i denotes the number of cells counted in channel i. Cells were counted in EGFP and Cy5 channels using TrackMate (DoG detector + Simple LAP tracker).^[ [62] ^] The cellular morphology was also manually monitored using the phase contrast channel by tagging cells losing adhesion and displaying blebs.^[ [60] ^]

HeLa cells [8] = experiment: Resazurin viability run in parallel to the JC-10 assay; type: cell-based, human; conditions: 10 μM, 1 h and 4 h
[9] = tested on: mitochondrial membrane potential of HeLa cells; experiment: Mitochondrial membrane polarization JC-10 endpoint assay; type: cell-based, human; conditions: 10 μM, 1 h or 4 h
Procedure: Several gold complexes were previously reported to accumulate in mitochondria^[ [50], [51] ^] or even to disrupt their membrane potential.^[ [27], [52], [53] ^] We therefore investigated the possible antimitochondrial activity of BGC19b, chosen as a representative of the most toxic compounds. Briefly, we incubated HeLa cells with BGC19b (1 h or 4 h) or CCCP (4 h) as positive control and monitored the mitochondrial membrane potential through a JC‐10 endpoint assay.
HeLa cells were seeded in a 96‐well plate (2000 cells in 100 μL complete medium per well) and left to adhere. Cells were then treated in triplicate with gold complexes (addition of 100 μL of 2x complex solution in FBS‐free medium) 4 h and 1 h before reading the plate. A control triplicate was treated with CCCP (10 μM) and incubated for 4 h before reading. One hour before reading, 100 μL of supernatant was withdrawn from each well and replaced with JC‐10 in assay buffer A solution (Abcam, 1x, 50 μL). Cells were incubated with the marker for 1 h, and assay buffer B (50 μL) was added. Mitochondrial membrane potential was assessed by computing the ratio of fluorescence intensities between aggregated (λ ex = 540 nm, λ fluo = 590 nm) and nonaggregated JC‐10 (λ ex = 490 nm, λ fluo = 525 nm). […]

[10] = parameters: method as in PMID 29277693; conditions: read-out: EC50 of CCCP; cited from earlier work

COc1ccccc1 [Anisole]
log(k’w) of log P standard mix [1]: 2.1

C[n+]1ccn2[c]1[Au-]1([c]3cc(C(C)(C)C)ccc3-c3ccc(C(C)(C)C)c[c]31)[n+]1ccccc1C2.F[P-](F)(F)(F)(F)F [BGC12b]
Species identified in culture medium mixture [2]: only the neutral complexes were identified | EC50 (MCF‐10 A): 1200 ± 300 nM | EC50 (Huh‐7): 1800 ± 100 nM | Spectra in MeCN‐d3 after incubation in DMSO and extraction in DCM [3]: unchanged | EC50 (MDA‐MB‐231): 2900 ± 100 nM | Log P (cationic b, form) [4]: 3.9 | EC50 (HeLa cells [5]): 1800 ± 100 nM | Conversion of cationic to neutral form on addition of chloride [6]: converted back quantitatively and instantaneously

Cc1cccc2[n+]1[Au-]1([c]3cc(C(C)(C)C)ccc3-c3ccc(C(C)(C)C)c[c]31)[c]1n(cc[n+]1C)C2.F[P-](F)(F)(F)(F)F [BGC13b]
Log P (cationic b, form) [4]: 4.4

Cc1cc[n+]2c(c1)Cn1cc[n+](C)[c]1[Au-]21[c]2cc(C(C)(C)C)ccc2-c2ccc(C(C)(C)C)c[c]21.F[P-](F)(F)(F)(F)F [BGC14b]
Log P (cationic b, form) [4]: 4.8

COc1cc[n+]2c(c1)Cn1cc[n+](C)[c]1[Au-]21[c]2cc(C(C)(C)C)ccc2-c2ccc(C(C)(C)C)c[c]21.F[P-](F)(F)(F)(F)F [BGC15b]
Log P (cationic b, form) [4]: 4.2 | Conversion of cationic to neutral form on addition of chloride [6]: converted back quantitatively and instantaneously

C[n+]1ccn2[c]1[Au-]1([c]3cc(C(C)(C)C)ccc3-c3ccc(C(C)(C)C)c[c]31)[n+]1c(ccc3ccccc31)C2.F[P-](F)(F)(F)(F)F [BGC16b]
Log P (cationic b, form) [4]: 4.5 | EC50 (HeLa cells [5]): 3200 ± 300 nM

C[n+]1ccn2[c]1[Au-]1([c]3cc(C(C)(C)C)ccc3-c3ccc(C(C)(C)C)c[c]31)[n+]1ccncc1C2.F[P-](F)(F)(F)(F)F [BGC17b]
Log P (cationic b, form) [4]: 3.5

C[n+]1[c]2n(c3ccccc31)Cc1cccc[n+]1[Au-]21[c]2cc(C(C)(C)C)ccc2-c2ccc(C(C)(C)C)c[c]21.F[P-](F)(F)(F)(F)F [BGC18b]
EC50 (MCF‐10 A): 2800 ± 500 nM | EC50 (Huh‐7): 2500 ± 400 nM | EC50 (MDA‐MB‐231): 4400 ± 800 nM | Log P (cationic b, form) [4]: 4.5 | EC50 (HeLa cells [5]): 2800 ± 700 nM

CC(C)(C)c1ccc2[c](c1)[Au-]1([c]3cc(C(C)(C)C)ccc3-2)[c]2n3ccccc3c[n+]2Cc2cccc[n+]21.F[P-](F)(F)(F)(F)F [BGC19b]
Species identified in culture medium mixture [2]: only the neutral complexes were identified | EC50 (MCF‐10 A): 1600 ± 400 nM | EC50 (Huh‐7): 1400 ± 100 nM | EC50 (MDA‐MB‐231): 2000 ± 100 nM | Log P (cationic b, form) [4]: 4.3 | Induction period before adhesion loss, blebs and caspase 3/7 activation ([7]; 1.7 μM): around 4 h | Rate of apoptosis induction (caspase activation kinetics) [7]: induces apoptosis much faster than CCCP | Change in cell viability during JC-10 assay (HeLa cells [8]): no significant change in cell viability | EC50 (HeLa cells [5]): 1800 ± 600 nM | Conversion of cationic to neutral form on addition of chloride [6]: converted back quantitatively and instantaneously | Mitochondrial membrane depolarization [9]: significant mitochondrial membrane depolarization

N#CC(C#N)=NNc1cccc(Cl)c1 [CCCP, reference compound]
EC50 [10]: 10000 nM | Rate of apoptosis induction (caspase activation kinetics) [7]: occurred at a much slower rate compared to BGC19b

c1ccc2ccccc2c1 [Naphtalene]
log(k’w) of log P standard mix [1]: 3.6

CCCCCCCCc1ccccc1 [Octylbenzene]
log(k’w) of log P standard mix [1]: 6.3
